According to patent publication US7772425B2, “Vitamin D receptor modulators” (Eli Lilly and Company, priority 2002, dated 2010):
Values joined by “and” are separate entries in the source; they are usually repeats but may differ in a detail not shown here. Equal entries are not always repeated. Where two headings read alike, the source gives them in different places.

Legend:
[1] = system: KERtr cells (Human skin keratinocyte); assay: Keratinocyte proliferation assay; assay type: cell-based; conditions: BrdU incorporation, read-out: Kera. Prolif. IC50
Method: 5. The Keratinocyte Proliferation Assay
This Assay is indicative for the treatment of psoriasis.
(5) The Keratinocyte Proliferation Assay:
KERtr cells (Human skin keratinocyte transformed with a retrovirus vector, obtained from ATCC) were plated in 96-well flat-bottomed plates (3000 cells/well) in 100 μl keratinocyte serum free medium supplemented with bovine pituitary extract in the absence of EGF (Life Technologies, Rockville, Md.) and incubated at 37° C. for two days. The cells were treated with various concentrations of VDR ligands (ten-fold serial dilution from 10,000 nM to 0.1 nM in triplicate), dissolved in 100 μl keratinocyte serum free medium supplemented with bovine pituitary extract in the absence of EGF and incubated at 37° C. for 72 hr. BrdU (5-bromo-2′-deoxyuridine) incorporation was analyzed as a measure of DNA replication (Cell proliferation ELISA kit, Roche Diagnostics, Indianapolis, Ind.) and absorbance was measured at 405 nm. Potency values (IC50) values were determined as the concentration (nM) of compound that elicited a half-maximal response.

rat osteocalcin promoter = assay: OCN (osteocalcin) promoter assay in RG-15 (ROS 17/2.8) cells; assay type: cell-based; conditions: 48 hr treatment, luciferase
Method: 3. The OCN (Osteocalcin) Promoter Assay
The OCN Promoter Assay is an indicator and marker for osteoporosis. […] Preferred assay results are less than 50 nM.
(3) Materials and Method for The OCN Promoter Assay:
The activation of osteocalcin by VDR ligands was evaluated in a rat osteoblast-like cell line RG-15 (ROS 17/2.8) stably expressing rat osteocalcin promoter fused with luciferase reporter gene. […] Confluent RG-15 cells maintained in DMEM/F-12 medium (3:1) containing 5% FBS, 300 μg/ml G418 and at 37° C. under 5% CO2/95% air atmosphere were trypsinized (0.25% trypsin) and plated into white opaque 96-well cell culture plates (25000 cells/well). After 24 hr, cells (in DMEM/F-12 medium+2% FBS) were treated with various concentrations of compounds, dissolved in DMSO. The final DMSO concentration remained at 0.01% (v/v). After 48 hr treatment, the medium was removed, cells were lysed with 50 μl of lysis buffer (From Luciferase reporter assay system, Roche Diagnostics, Indianapolis, Ind.) and assayed for luciferase activity using the Luciferase Reporter Gene Assay kit from Boehringer Mannheim as per manufacturer's specifications.

female DBF mice = assay: Mouse hypercalcemia assay; assay type: in vivo; conditions: orally via gavage for 6 days; serum ionized calcium 6 hours after last dosing
Source text: 4. The Mouse Hypercalcemia Assay
(4) Materials and Method for The Mouse Hypercalcemia Assay: […]

[2] = Homo sapiens, Keratinocyte, 72 h

SMILES | EC50 (rat osteocalcin promoter) | EC50 (rat osteocalcin promoter; Rattus norvegicus, 48 h) [nM] | Mouse Hypercal (female DBF mice) [µg/kg/day] | other results
CCC(CC)(c1ccc(/C=C/C(=O)N(C)C)c(C)c1)c1ccc(OCC(O)C(C)(C)C)c(C)c1 (stereo not shown) [Ex. 9, 3′-[4-(2-hydroxy-3,3-dimethylbutoxy)-3-methylphenyl]-3′-[4-(2-dimethylcarbamoyl-t-ethylidene)-3-methylphenyl]pentane] | 6 nM | 7 | – | IC50 [1, 2]: 985 nM
Cc1cc(C2(c3ccc(OCC(=O)C(C)(C)C)c(C)c3)CCCCC2)ccc1OCC(=O)C(C)(C)C [CC, 1-(4-{1-[4-(3,3-Dimethyl-2-oxo-butoxy)-3-methyl-phenyl]-cyclohexyl}-2-methyl-phenoxy)-3,3-dimethyl-butan-2-one, reference compound] | – | > 1000 | – | –
CCC(CC)(c1ccc(OCC(O)C(C)(C)C)c(C)c1)c1ccc(C(=O)OC)c(C)c1 (racemic) [Ex. 1, 3′-[4-(2-hydroxy-3,3-dimethylbutoxy)-3-methylphenyl]-3′-[4-methoxycarbonyl-3-methylphenyl]pentane] | – | 21 | – | –
CCC(CC)(c1ccc(OCC(O)C(C)(C)C)c(C)c1)c1ccc(C(=O)OC)c(C)c1 (single isomer, unassigned) [Ex. 4A, 3′-[4-(2-hydroxy-3,3-dimethylbutoxy)-3-methylphenyl]-3′-[4-methoxycarbonyl-3-methylphenyl]pentane] | 3 nM | – | – | –
CCC(CC)(c1ccc(OCC(O)C(C)(C)C)c(C)c1)c1ccc(C(=O)Nc2nnn[nH]2)c(C)c1 (single isomer, unassigned) [Ex. 27, 3′-[4-(2-hydroxy-3,3-dimethylbutoxy)-3-methylphenyl]-3′-[4-(tetrazol-5-ylaminocarbonyl)-3-methylphenyl]pentane] | 13 nM and 23 nM | – | 300 | –
CCC(CC)(c1ccc(CNCCS(C)(=O)=O)c(C)c1)c1ccc(OCC(=O)C(C)(C)C)c(C)c1 [Ex. 13, 1-[4-(1-ethyl-1-{4-[(2-methanesulfonyl-ethylamino)-methyl]-3-methyl-phenyl}-propyl)-2-methyl-phenoxy]-3,3-dimethyl-butan-2-one] | 167 nM | 89 | 3000 | –
CCC(CC)(c1ccc(OCC(=O)C(C)(C)C)c(C)c1)c1ccc(C(=O)NCCS(C)(=O)=O)c(C)c1 [Ex. 16, 4-{1-[4-(3,3-dimethyl-2-oxobutoxy)-3-methylphenyl]-1-ethylpropyl}-N-(2-methanesulfonylethyl)-2-methylbenzamide] | – | 35 | >5000 | –
CCC(CC)(c1ccc(OCC(O)C(C)(C)C)c(C)c1)c1ccc(C(=O)OC)c(C)c1 (single isomer, unassigned) [Ex. 4B, 3′-[4-(2-hydroxy-3,3-dimethylbutoxy)-3-methylphenyl]-3′-[4-methoxycarbonyl-3-methylphenyl]pentane] | 15 nM | – | – | –
CCC(CC)(c1ccc(OCC(O)C(C)(C)C)c(Cl)c1)c1ccc(C(=O)O)c(Cl)c1 (single isomer, unassigned) [Ex. 42, 3′-[3-chloro-4-(2-hydroxy-3,3-dimethyl-butoxy)phenyl]-3′-(3-chloro-4-carboxyphenyl)pentane] | – | – | – | IC50 [1, 2]: 50 nM
CCC(CC)(c1ccc(OC[C@@H](O)C(C)(C)C)c(C)c1)c1ccc(C(=O)NCC(=O)O)c(C)c1 (stereo in doubt) [Ex. 24, (4-{1-ethyl-1-[4-(2-hydroxy-3,3-dimethylbutoxy)-3-methylphenyl]-propyl}-2-methylbenzoylamino)acetic acid] | – | 0.2 | – | –
CCC(CC)(c1ccc(OCC(O)C(C)(C)C)c(C)c1)c1ccc(C(=O)Nc2nnn[nH]2)c(C)c1 (single isomer, unassigned) [Ex. 12b, 3′-[4-(2-hydroxy-3,3-dimethylbutoxy)-3-methylphenyl]-3′-[4-(tetrazol-5-ylaminocarbonyl)-3-methylphenyl]pentane] | 13 nM and 23 nM | – | 300 | –
CCC(CC)(c1ccc(OCC(O)C(C)(C)C)c(C)c1)c1ccc(C(=O)O)c(C)c1 (single isomer, unassigned) [Ex. 3B] | 57 nM and 83 nM | – | 3000 | –
CCC(CC)(c1ccc(OCC(O)C(C)(C)C)c(C)c1)c1ccc(C(=O)NCCS(C)(=O)=O)c(C)c1 (single isomer, unassigned) [Ex. 15B, 4-{1-ethyl-1-[4-(2-hydroxy-3,3-dimethylbutoxy)-3-methylphenyl]propyl}-N-(2-methanesulfonylethyl)-2-methylbenzamide] | 163 nM | – | – | –
CCC(CC)(c1ccc(OCC(O)C(C)(C)C)c(C)c1)c1ccc(C(=O)O)c(Cl)c1 (racemic) [Ex. 39, 3′-[3-methyl-4-(2-hydroxy-3,3-dimethylbutoxy)phenyl]-3′-(3-chloro-4-carboxyphenyl)pentane] | 61 nM | 74 | – | IC50 [1, 2]: 508 nM
CCC(CC)(c1ccc(OC(C)C(O)C(C)(C)C)c(C)c1)c1ccc(C(=O)OC)c(C)c1 (single isomer, unassigned) [Ex. 10Db, 3′-[4-(2-hydroxy-1,3,3-trimethylbutoxy)-3-methylphenyl]-3′-[4-methoxycarbonyl-3-methylphenyl]pentane] | 15 nM | – | – | IC50 ([1]; 72 hr): 1000 nM
CCC(CC)(c1ccc(OCC(=O)C(C)(C)C)c(C)c1)c1ccc(OC[C@H](O)C(C)(C)C)c(C)c1 [EE, reference compound] | – | 341 | 1000 | –
CCC(CC)(c1ccc(OC[C@@H](O)C(C)(C)C)c(C)c1)c1ccc(C(=O)NCCS(C)(=O)=O)c(C)c1 (stereo in doubt) [Ex. 14, 4-{1-ethyl-1-[4-(2-hydroxy-3,3-dimethylbutoxy)-3-methylphenyl]propyl}-N-(2-methanesulfonylethyl)-2-methylbenzamide] | – | 306 | 3000 | –
CCC(CC)(c1ccc(OCC(O)C(C)(C)C)c(C)c1)c1ccc(C(=O)O)c(C)c1 (single isomer, unassigned) [Ex. 3A] | 15 nM and 18 nM | – | 1000 | –
C=C1/C(=C\C=C2/CCC[C@]3(C)[C@@H]([C@H](C)CCCC(C)(C)O)CC[C@@H]23)C[C@@H](O)C[C@@H]1O [AA, 1α,25-dihydroxyvitamin D3, reference compound] | – | – | 0.06 | –
CCC(CC)(c1ccc(CCC(O)C(C)(C)C)c(C)c1)c1ccc(C(=O)O)c(C)c1 (racemic) [Ex. 55, 3′-[4-(3-hydroxy-4,4-dimethylpentyl)-3-methylphenyl]-3′-[4-carboxyl-3-methylphenyl]pentane] | – | 6 | – | –
CCC(CC)(c1ccc(OC(C)C(O)C(C)(C)C)c(C)c1)c1ccc(C(=O)O)c(C)c1 (single isomer, unassigned) [Ex. 12] | 20 nM and 25 nM | – | 4000 | –
CCC(CC)(c1ccc(CCC(=O)C(C)(C)C)c(C)c1)c1ccc(C(=O)O)c(C)c1 [Ex. 54, 3′-[4-(3-oxo-4,4-dimethylpentyl)-3-methylphenyl]-3′-[4-carboxyl-3-methylphenyl]pentane] | – | 119 | >3000 | –
CCC(CC)(c1ccc(OC(C)C(O)C(C)(C)C)c(C)c1)c1ccc(C(=O)N[C@@H](C)C(=O)O)c(C)c1 (stereo partly shown) [Ex. 49, (L)-2-(4-{1-Ethyl-1-[4-(2-hydroxy-1,3,3-trimethyl-butoxy)-3-methyl-phenyl]-propyl}-2-methyl-benzoylamino)-propionic acid] | – | – | – | IC50 ([1]; 72 hr): 1000 nM
CCC(CC)(c1ccc(OC(C)C(O)C(C)(C)C)c(C)c1)c1ccc(C(=O)OC)c(C)c1 (single isomer, unassigned) [Ex. 10Da, 3′-[4-(2-hydroxy-1,3,3-trimethylbutoxy)-3-methylphenyl]-3′-[4-methoxycarbonyl-3-methylphenyl]pentane] | – | – | – | IC50 [1, 2]: 1000 nM
CCC(CC)(c1ccc(OCC(O)C(C)(C)C)c(Cl)c1)c1ccc(C(=O)O)c(Cl)c1 (single isomer, unassigned) [Ex. 41, 3′-[3-chloro-4-(2-hydroxy-3,3-dimethyl-butoxy)phenyl]-3′-(3-chloro-4-carboxyphenyl)pentane] | 421 nM | – | – | –
CCC(CC)(c1ccc(C(=O)O)c(C)c1)c1ccc(OCC(O)C(C)(C)C)c(Cl)c1 (racemic) [Ex. 38, 3′-[3-chloro-4-(2-hydroxy-3,3-dimethylbutoxy)phenyl]-3′-[3-methyl-4-(carboxy)phenyl]pentane] | – | 41 | – | –
CCC(CC)(c1ccc(OCC(O)CO)c(C)c1)c1ccc(OCC(O)C(C)(C)C)c(C)c1 (stereo not shown) [BB, 3-(4-{1-Ethyl-1-[4-(2-hydroxy-3,3-dimethyl-butoxy)-3-methyl-phenyl]-propyl}-2-methyl-phenoxy)-propane-1,2-diol, reference compound] | – | – | 20 | –
